# Measured values reported in patent US7186831B2, “5-halo-2-alkyl[1,2,4]triazolo[1,5-a]pyrimidin-7-amines” (priority 2001, dated 2007).
# Test: log P by HPLC
# Assay type: physicochemical
# Conditions: EEC directive 79/831 Annex V. A8 by HPLC (gradient method, acetonitrile/0.1% aqueous phosphoric acid)
row,SMILES,logP
1,CC(Nc1c(-c2ccc(F)cc2Cl)c(Cl)nc2nc(C3CC3)nn12)C(F)(F)F (racemic) [compound 505],3.75
2,"Cc1nc2nc(Cl)c(-c3ccc(F)cc3F)c(NC(C)C(F)(F)F)n2n1 (single isomer, unassigned) [compound 359]",2.95
3,"Cc1nc2nc(Cl)c(-c3ccc(F)cc3F)c(NC(C)C(F)(F)F)n2n1 (single isomer, unassigned) [compound 360]",2.96
4,"C[C@H](Nc1c(-c2ccc(F)cc2F)c(Cl)nc2nc(C3CC3)nn12)C(F)(F)F (single isomer, unassigned) [compound 489]",3.51
5,"C[C@H](Nc1c(-c2ccc(F)cc2F)c(Cl)nc2nc(C3CC3)nn12)C(F)(F)F (single isomer, unassigned) [compound 490]",3.52

# Same assay, conditions: HPLC
row,SMILES,chromatographic logP
1,Fc1cc(F)c(-c2c(Cl)nc3nc(C(F)(F)F)nn3c2N2CCC(C(F)(F)F)CC2)c(F)c1 [Example 1],4.43
2,"Fc1cc(F)c(-c2c(Cl)nc3nc(C(F)(F)F)nn3c2Cl)c(F)c1 [Example 819, 5,7-dichloro-2-(trifluoromethyl)-6-(2,4,6-trifluorophenyl)[1,2,4]triazolo[1,5-a]pyrimidine]",3.71
3,"Oc1nc2nc(C(F)(F)F)nn2c(O)c1-c1c(F)cc(F)cc1F [Example 832, 2-trifluoromethyl-6-(2,4,6-trifluoro-phenyl)-[1,2,4]triazolo[1,5-a]pyrimidine-5,7-diol]",0.81

# Same assay, conditions: HPLC, gradient method, acetonitrile/0.1% aqueous phosphoric acid; EEC directive 79/831 Annex V. A8
row,SMILES,logP
1,CC(C)C(C)Nc1c(-c2ccc(F)cc2Cl)c(Cl)nc2nc(C3CC3)nn12 (racemic) [compound 586],4.25
2,CC(C)C(C)Nc1c(-c2ccc(F)cc2Cl)c(Cl)nc2nc(C3CC3)nn12 (racemic) [compound 587],4.25
3,Cc1nc2nc(Cl)c(-c3ccc(F)cc3Cl)c(NC(C)C(F)(F)F)n2n1 (racemic) [compound 640],3.19
4,CC(Nc1c(-c2ccc(F)cc2Cl)c(Cl)nc2nc(C3CC3)nn12)C(F)(F)F (racemic) [compound 747],3.73
5,CC(Nc1c(-c2ccc(F)cc2Cl)c(Cl)nc2nc(C3CC3)nn12)C(F)(F)F (racemic) [compound 748],3.77
6,CC(C)C(C)Nc1c(-c2ccc(F)cc2Cl)c(Cl)nc2nc(C3CC3)nn12 (racemic) [compound 775],4.23
7,"Cc1nc2nc(Cl)c(-c3ccc(F)cc3Cl)c(N[C@@H](C)C(F)(F)F)n2n1 (single isomer, unassigned) [compound 641]",3.2
8,"Cc1nc2nc(Cl)c(-c3ccc(F)cc3Cl)c(N[C@@H](C)C(F)(F)F)n2n1 (single isomer, unassigned) [compound 642]",3.17
9,"CC(Nc1c(-c2ccc(Cl)cc2Cl)c(Cl)nc2nc(C3CC3)nn12)C(F)(F)F (single isomer, unassigned) [compound 710]",4.12
10,"CC(Nc1c(-c2ccc(Cl)cc2Cl)c(Cl)nc2nc(C3CC3)nn12)C(F)(F)F (single isomer, unassigned) [compound 711]",4.19
11,"CC(C)C(C)Nc1c(-c2ccc(Cl)cc2Cl)c(Cl)nc2nc(C3CC3)nn12 (single isomer, unassigned) [compound 756]",4.72
12,"CC(C)C(C)Nc1c(-c2ccc(Cl)cc2Cl)c(Cl)nc2nc(C3CC3)nn12 (single isomer, unassigned) [compound 757]",4.72
13,"CC(C)C(C)Nc1c(-c2ccc(Cl)cc2Cl)c(Cl)nc2nc(C3CC3)nn12 (single isomer, unassigned) [compound 758]",4.72
14,"CC(C)C(C)Nc1c(-c2ccc(Cl)cc2Cl)c(Cl)nc2nc(C3CC3)nn12 (single isomer, unassigned) [compound 759]",4.72
15,"CC(Nc1c(-c2ccc(F)cc2Cl)c(Cl)nc2nc(C3CC3)nn12)C(F)(F)F (single isomer, unassigned) [compound 767]",3.73
16,"CC(Nc1c(-c2ccc(F)cc2Cl)c(Cl)nc2nc(C3CC3)nn12)C(F)(F)F (single isomer, unassigned) [compound 768]",3.77
17,CCc1nc2nc(Cl)c(-c3c(F)cc(F)cc3F)c(N3CCC(C(F)(F)F)CC3)n2n1 [compound 2],3.99
18,CCc1nc2nc(Cl)c(-c3c(F)cc(F)cc3F)c(NCC(F)(F)F)n2n1 [compound 5],3.06
19,CCc1nc2nc(Cl)c(-c3c(F)cc(F)cc3F)c(NCCC(F)(F)F)n2n1 [compound 6],3.18
20,CC(Nc1c(-c2c(F)cc(F)cc2F)c(Cl)nc2nc(C(C)(C)C)nn12)C(F)(F)F (stereo not drawn) [compound 9],4.24
21,C=C(C)CN(CC)c1c(-c2c(F)cc(F)cc2F)c(Cl)nc2nc(C(F)(F)F)nn12 [compound 10],4.73
22,CC(C)Nc1c(-c2c(F)cc(F)cc2F)c(Cl)nc2nc(C(F)(F)F)nn12 [compound 11],3.8

row,SMILES,logP
1,Cc1nc2nc(Cl)c(-c3c(F)cc(F)cc3F)c(NC(C)C(F)(F)F)n2n1 (stereo not drawn) [compound 12],3.01
2,Cc1nc2nc(Cl)c(-c3c(F)cc(F)cc3F)c(NCC(F)(F)F)n2n1 [compound 13],2.69
3,C=C(C)CN(CC)c1c(-c2c(F)cc(F)cc2F)c(Cl)nc2nc(C)nn12 [compound 14],3.83
4,C=C(C)CN(CC)c1c(-c2c(F)cc(F)cc2F)c(Cl)nc2nc(CC)nn12 [compound 15],4.34
5,C=C(C)CNc1c(-c2c(F)cc(F)cc2F)c(Cl)nc2nc(C)nn12 [compound 16],2.76
6,CC(C)Nc1c(-c2ccccc2Cl)c(Cl)nc2nc(C3CC3)nn12 [compound 17],3.39
7,Cc1nc2nc(Cl)c(-c3c(F)cc(F)cc3F)c(NCC#N)n2n1 [compound 18],2.02
8,C=C(C)CNc1c(-c2c(F)cc(F)cc2F)c(Cl)nc2nc(CC)nn12 [compound 21],3.15
9,C=C(C)CNc1c(-c2c(F)cc(F)cc2F)c(Cl)nc2nc(C(F)(F)F)nn12 [compound 22],3.82
10,CCc1nc2nc(Cl)c(-c3c(F)cc(F)cc3F)c(NCC#N)n2n1 [compound 23],2.27
11,N#CCNc1c(-c2c(F)cc(F)cc2F)c(Cl)nc2nc(C(F)(F)F)nn12 [compound 24],2.91
12,CC(Nc1c(-c2c(F)cc(F)cc2F)c(Br)nc2nc(C(F)(F)F)nn12)C(F)(F)F (stereo not drawn) [compound 25],3.99
13,Cc1nc2nc(Cl)c(-c3c(F)cc(F)cc3F)c(NC(C)C)n2n1 [compound 26],2.71
14,Cc1nc2nc(Cl)c(-c3c(F)cc(F)cc3F)c(NNC(C)C)n2n1 [compound 28],2.7
15,CCN(CCOC)c1c(-c2c(F)cc(F)cc2F)c(Cl)nc2nc(C)nn12 [compound 29],2.93
16,CCc1nc2nc(Cl)c(-c3c(F)cc(F)cc3F)c(N(CC)CCOC)n2n1 [compound 30],3.37
17,CCN(CCOC)c1c(-c2c(F)cc(F)cc2F)c(Cl)nc2nc(C(F)(F)F)nn12 [compound 31],4.04
18,Fc1cc(F)c(-c2c(Cl)nc3nc(C(F)(F)F)nn3c2NC2CCCC2)c(F)c1 [compound 32],4.25
19,CCN(CC)c1c(-c2c(F)cc(F)cc2F)c(Cl)nc2nc(C(F)(F)F)nn12 [compound 33],4.25
20,Fc1cc(F)c(-c2c(Cl)nc3nc(C(F)(F)F)nn3c2N2CCOCC2)c(F)c1 [compound 34],3.22
21,Fc1cc(F)c(-c2c(Cl)nc3nc(C(F)(F)F)nn3c2NC2CC2)c(F)c1 [compound 35],3.53
